{"source": "patent EP0642504B1", "about": "(priority 1991, dated 1993)", "key": {"[1]": {"test_system": "N-methyl-D-aspartate (NMDA) induced lethality", "test": "Protection against NMDA induced lethality", "type": "in vivo, Balb/c male mice", "conditions": "90 min before NMDA (125 mg/kg) s.c., no drug 0/20", "text": "(§1) The present compounds are active in several tests generally used to indicate neuroprotection."}, "NMDA receptor": {"test_system": "NMDA receptor", "test": "NMDA-blocking response in Xenopus oocytes injected with rat brain RNA (two-electrode voltage clamp)", "type": "cell-based", "text": "The oocyte is the most widely used system for studying the molecular, biophysical and pharmacological properties of expressed voltage- or transmitter-operated ion channels. This giant cell offers several advantages for this type of studies. It can be readily used for two-electrode voltage clamp studies, translates injected mRNA from different sources and functionally expresses the translated proteins, and it is also readily amenable for intracellular microinjections. Importantly, the recordings of transmitter- or voltage-incuded currents in a single oocyte are extremely stable and can be done, without rundown, for 2-3 hours; this allows the performance of a full dose-response relation in single oocytes.\nNeuronal receptors for excitatory amino acid (EAA) are becoming increasingly important for the understanding of normal and pathological brain function. Quantitative pharmacological studies of EAA receptor/ion channel complex are difficult to study in neurons. Therefore, Xenopus oocyte injected with brain mRNA is now the preparation of choice.\nThe response to N-methyl-D-aspartate (NMDA) in oocytes injected with rat brain mRNA was characterized and the effects of HU-245 were studied.\nFemale Xenopus were anesthetized by immersion in water containing 0.15% tricaine methanesulfonate and a small incision was made in the lower adbomen. Ovary fragments were removed into ND-96. […]"}, "[2]": {"test_system": "picrotoxin induced lethality", "test": "Protection against picrotoxin induced lethality", "type": "in vivo, Balb/c male mice", "conditions": "drug 10 mg/kg, 120 min before picrotoxin (8 mg/kg) s.c.; no drug 0/17", "text": "as §1"}, "intraocular pressure": {"test_system": "intraocular pressure", "test": "Reduction of intraocular pressure (anti-glaucoma activity)", "type": "in vivo, rabbits", "conditions": "50 µl drop of a 1% emulsion into the rabbit eye", "description": "Reduction of intraocular pressure in rabbits was determined by the addition of a 50 µl drop of a 1% emulsion of the cannabinoid into the rabbit eye. This test is a measure of anti-glaucomatic activity."}, "[3]": {"test_system": "strychnine induced lethality", "test": "Protection against strychnine induced lethality", "type": "in vivo", "conditions": "rats", "text": "as §1"}, "[4]": {"test_system": "forebrain ischemia (unilateral occlusion)", "test": "Forebrain ischemia (unilateral occlusion)", "type": "in vivo", "conditions": "mongolian gerbils", "text": "as §1"}, "PAF-Induced Paw Edema": {"test_system": "PAF-Induced Paw Edema", "test": "PAF-induced paw edema (water displacement)", "type": "in vivo, CD-1 female mice", "conditions": "oral, 15 min after PAF (1.0 µg s.c.), vs vehicle treated controls", "description": "A second model, in which edema is induced by platelet activating factor (PAF), was used to evaluate activity.\n(§2) The conditions were based on those reported previously [Calhoun et al., ibid.]. […] PAF (1.0 µg) or arachidonic acid (1.0 mg) dissolved in 50 µl of 5% ethanol in saline, were injected s.c. into the plantar surface of the right hind paw of CD-1 female mice (20-25 g) obtained from Charles River Labs. The mice were under ether anesthesia during this procedure. The volume of the right foot was measured to the level of the lateral malleous by water displacement before treatment and 15 min after PAF injection or 30 min after archidonate injection. The change in paw volume was calculated for each mouse and the significance for each group was determined by a paired t test analysis."}, "[5]": {"test_system": "Arachidonic Acid-Induced Paw Edema", "test": "Arachidonic acid-induced paw edema (water displacement)", "type": "in vivo, CD-1 female mice", "conditions": "oral, 30 min after arachidonic acid (1.0 mg s.c.), vs vehicle treated controls", "description": "The induction of paw edema in rodents by injection of arachidonic acid has been used as an experimental model for inflammation [Calhoun, W., et al., Agents and Actions, 21, 306 (1987)]. Prior administration of non-steroidal anti-inflammatory drugs (NSAIDs) in many cases leads to a dose related inhibition of the edematous response which may be considered a predictor of clinical efficacy.\nas §2"}, "[6]": {"test": "Solubility in the oocyte test medium", "type": "physicochemical", "description": "Several NMDA receptor blockers were tested. These compounds have very low solubility and have to be dissolved in 100% dimethyl sulfoxide (DMSO) and diluted for use in ND 96 that contained 1% DMSO. Therefore, the effect of 1% DMSO on the response to 10-^4 M NMDA and 5x10-^6 M glycine was examined. DMSO had no effect on NMDA response in three different cells.\nThe effect of HU-245 was reversible upon return to ND 96 solution."}, "peritoneal leukocytes": {"test_system": "peritoneal leukocytes", "test": "Leukocyte adhesion assay, peritoneal cells collected after oral dosing", "type": "in vivo, CD-1 mice", "conditions": "cells collected 90 min after administration; for number of adhering cells x 10^-6 ± S.D.: 18-20 hours incubation", "description": "Leukocytes are thought to be major contributors to the inflammatory response and their ability in this regard is reflected by their adhesiveness to a variety of substrates [Audette, C.A., et al., Life Sci., 47, 753 (1990)].\nThe details of the leukocytes adhesion assay have been previously reported [Audette et al., ibid.]. In brief, peritoneal cells from femals CD-1 mice (20-25 g) were collected at 90 min following oral administration of the drug or vehicle (50 µl peanut oil). Cells from each treatment group (N=3) were pooled and equal numbers aliquoted into six culture dish wells (1.9 cm^2 area). After incubation for 18-20 hours, non-adhering cells were removed and the remaining cell monolayer quantitated by DNA measurement."}}, "note": "Marks after values point to notes of the source that are not given here.", "data": [{"smiles": "CCCCCCC(C)(C)c1cc(OC(C)=O)c2c(c1)OC(C)(C)[C@H]1CC=C(C(=O)O)C[C@H]21", "note": "[HU-245, (3S,4S)-THC-DMH-7-oic acid, acetate]", "values": [{"measurement": "Survival rate (number of survivors out of total number of animals used)", "setting": "[1]; drug 2.5 mg/kg", "value": "6/12"}, {"measurement": "Survival rate (number of survivors out of total number of animals used)", "setting": "[1]; drug 10 mg/kg", "value": "8/10"}, {"measurement": "response to NMDA", "setting": "NMDA receptor; 10-^6M compound, 10-^4 M NMDA and 5x10-^6 M glycine, membrane potential -60mV, 1 µM", "value": "55 % of control"}, {"measurement": "reversibility of the effect on the NMDA response", "setting": "NMDA receptor; upon return to ND 96 solution", "value": "reversible"}, {"measurement": "Survival rate (number of survivors out of total number of animals used)", "setting": "[2]", "value": "5/8"}, {"measurement": "Reduction of intraocular pressure", "setting": "intraocular pressure", "value": "Significant reduction"}, {"measurement": "protection against strychnine induced lethality", "setting": "[3]", "value": "protects against strychnine induced lethality"}, {"measurement": "protection against forebrain ischemia", "setting": "[4]", "value": "protect against forebrain ischemia"}, {"measurement": "percent inhibition of paw edema", "setting": "PAF-Induced Paw Edema; dose 0.10 mg/kg", "value": "37.3* percent"}, {"measurement": "percent inhibition of paw edema", "setting": "PAF-Induced Paw Edema; dose 0.25 mg/kg", "value": "66.9* percent"}, {"measurement": "percent inhibition of paw edema", "setting": "PAF-Induced Paw Edema; dose 0.5 mg/kg", "value": "72.0* percent"}, {"measurement": "percent inhibition of paw edema", "setting": "[5]; dose 0.050 mg.kg", "value": "35.7 (N.S.) percent"}, {"measurement": "percent inhibition of paw edema", "setting": "[5]; dose 0.100 mg.kg", "value": "50.1* percent"}, {"measurement": "percent inhibition of paw edema", "setting": "[5]; dose 0.250 mg.kg", "value": "48.2* percent"}, {"measurement": "percent inhibition of paw edema", "setting": "[5]; dose 0.55 mg.kg", "value": "42.2 (N.S.) percent"}, {"measurement": "solubility compared with prior art compounds", "setting": "[6]", "value": "higher than that of prior art compounds"}, {"measurement": "solubility", "setting": "[6]; nd 96 with 1% dmso, organic solvent or mixture, ND 96 containing 1% DMSO, read-out: solubility (soluble at a concentration of up to)", "value": "≤ 0.1", "unit": "µM"}, {"measurement": "adhering cells, percent of control", "setting": "peritoneal leukocytes; dose 0.05 mg/kg oral", "value": "105% of control"}, {"measurement": "number of adhering cells x 10^-6 ± S.D.", "setting": "peritoneal leukocytes; dose 0.05 mg/kg oral", "value": "1.32±0.04 x 10^-6"}, {"measurement": "adhering cells, percent of control", "setting": "peritoneal leukocytes; dose 0.10 mg/kg oral", "value": "52% of control"}, {"measurement": "number of adhering cells x 10^-6 ± S.D.", "setting": "peritoneal leukocytes; dose 0.10 mg/kg oral", "value": "0.66±0.05 x 10^-6"}, {"measurement": "adhering cells, percent of control", "setting": "peritoneal leukocytes; dose 0.50 mg/kg oral", "value": "67% of control"}, {"measurement": "number of adhering cells x 10^-6 ± S.D.", "setting": "peritoneal leukocytes; dose 0.50 mg/kg oral", "value": "0.85±0.08 x 10^-6"}, {"measurement": "adhering cells, percent of control", "setting": "peritoneal leukocytes; dose 1.00 mg/kg oral", "value": "24% of control"}, {"measurement": "number of adhering cells x 10^-6 ± S.D.", "setting": "peritoneal leukocytes; dose 1.00 mg/kg oral", "value": "0.30±0.04 x 10^-6"}]}]}
